# Measured values published in patent publication US20130338152A1, “FLUOROPHENYL BICYCLIC HETEROARYL COMPOUNDS” (IRM LLC, priority 2011, published 2013).
# Experiments:
# cKIT = cKIT (Homo sapiens, UniProt P10721); assay: Enzymatic kinase assay; type: biochemical
# Protocol: (§1) Two methods were used to analyze phosphorylated peptides and proteins produced by the listed tyrosine and serine/threonine-specific protein kinases: either using a filter-binding assay (FB), or using a flashplate assay (FP). The activities of protein kinases were assayed in the presence or absence of inhibitors, by measuring the incorporation of ^33P from [γ^33P]ATP into appropriate substrates.
# (§2) 96-well polypropylene microplates were used to assay the activity in the FB mode. To determine the inhibitory activity of compounds 10 μL of compound dilutions were pipetted into 96-well plates followed by the addition of 10 μL of assay mix and 10 μL of individual enzymes. With the addition of the enzymes the reactions were initiated and continued at RT. […] The final concentration of DMSO in the enzyme assays was 1%.
# (§3) Flashplates are available as 96-well standard (STFPs) or as streptavidin-(SAFPs) or nickel coated FPs (NiFPs) from Perkin Elmer. STFPs are 96-well polystyrene microplates in which the interior of each well is permanently coated with a thin layer of polystyrene-based scintillant. Streptavidin flashplates (SAFP) are 96 or 384-well STFPs coated with streptavidin. SAFPs are suitable for a wide variety of assay applications which utilize biotinylated capture molecules. NiFP or nickel chelate flashplates are 96- or 384-well STFPs coated with nickel chelate. NiFPs are designed for in-plate, radiometric assays which utilize 4- or 6-histidine tagged proteins and peptides.
# (§4) All kinase assays were performed in STFPs for 60 mins at RT and stopped with 50 μL of 0.5% H3PO4 except PKA which were carried out in polypropylene 96- and 384-well plates, respectively. […] All wells were then washed three times with 200 μL of 0.5% H3PO4 and the plates were dried at room temperature. The plates were sealed and counted in a microplate scintillation counter (TopCount NXT, TopCount NXT HTS). The final concentration of DMSO in the enzyme assays was 1%.
# PDGFRa = PDGFRa (Homo sapiens, UniProt P16234); assay: Enzymatic kinase assay; type: biochemical
# Protocol: as §1, §2, §3, §4
# FGFR-4 = FGFR-4 (Homo sapiens, UniProt P22455); assay: Enzymatic kinase assay; type: biochemical
# Protocol: as §1, §2, §3, §4
# LCK = LCK (Homo sapiens, UniProt P06239); assay: Enzymatic kinase assay; type: biochemical
# Protocol: as §1, §2, §3, §4
# TYK2 = TYK2 (Homo sapiens, UniProt P29597); assay: Enzymatic kinase assay; type: biochemical
# Protocol: as §1, §2, §3, §4
# cMET = cMET (Homo sapiens, UniProt P08581); assay: Enzymatic kinase assay; type: biochemical
# Protocol: as §1, §2, §3, §4
# GSK3beta = GSK3beta (Homo sapiens, UniProt P49841); assay: Enzymatic kinase assay; type: biochemical
# Protocol: as §1, §2, §3, §4
# COT1 = COT1 (Homo sapiens, UniProt P41279); assay: Enzymatic kinase assay; type: biochemical
# Protocol: as §1, §2, §3, §4
# KDR = KDR (Homo sapiens, UniProt P35968); assay: Enzymatic kinase assay; type: biochemical
# Protocol: as §1, §2, §3, §4
# CDK2A = CDK2A (Homo sapiens, UniProt P24941); assay: Enzymatic kinase assay; type: biochemical
# Protocol: as §1, §2, §3, §4
# cABLT315 = cABLT315 (Homo sapiens, UniProt P00519, T315I); assay: Enzymatic kinase assay; type: biochemical
# Protocol: as §1, §2, §3, §4
# P38a = P38a (Homo sapiens, UniProt Q16539); assay: Enzymatic kinase assay; type: biochemical
# Protocol: as §1, §2, §3, §4
# ERK2 = ERK2 (Homo sapiens, UniProt P28482); assay: Enzymatic kinase assay; type: biochemical
# Protocol: as §1, §2, §3, §4
# Aurora A = molecular target: T1, Aurora A (Homo sapiens, UniProt O14965); assay: Enzymatic kinase assay; type: biochemical
# T1 sequence (O14965 1-403): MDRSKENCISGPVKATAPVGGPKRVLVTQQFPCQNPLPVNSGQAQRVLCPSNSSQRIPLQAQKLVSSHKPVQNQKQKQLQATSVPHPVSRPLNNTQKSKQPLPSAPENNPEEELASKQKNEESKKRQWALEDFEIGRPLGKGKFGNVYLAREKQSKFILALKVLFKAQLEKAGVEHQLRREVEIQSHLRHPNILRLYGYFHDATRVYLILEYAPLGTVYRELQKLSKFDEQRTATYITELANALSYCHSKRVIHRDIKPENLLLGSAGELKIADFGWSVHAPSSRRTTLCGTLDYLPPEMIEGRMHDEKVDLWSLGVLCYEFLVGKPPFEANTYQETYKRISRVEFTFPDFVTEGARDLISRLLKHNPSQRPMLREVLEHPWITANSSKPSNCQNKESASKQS
# Protocol: as §1, §2, §3, §4
# JAK2 = JAK2 (Homo sapiens, UniProt O60674); assay: Enzymatic kinase assay; type: biochemical
# Protocol: as §1, §2, §3, §4
# RET = RET (Homo sapiens, UniProt P07949); assay: Enzymatic kinase assay; type: biochemical; conditions: enzymatic; read-out: RET IC50 values (converted)
# Protocol: as §1, §2, §3, §4
# EphA4 = EphA4 (Homo sapiens, UniProt P54764); assay: Enzymatic kinase assay; type: biochemical
# Protocol: as §1, §2, §3, §4
# MK2 = MK2 (Homo sapiens, UniProt P49137); assay: Enzymatic kinase assay; type: biochemical
# Protocol: as §1, §2, §3, §4
# HER2 = HER2 (Homo sapiens, UniProt P04626); assay: Enzymatic kinase assay; type: biochemical
# Protocol: as §1, §2, §3, §4
# InsR = InsR (Homo sapiens, UniProt P06213); assay: Enzymatic kinase assay (filter-binding/flashplate); type: biochemical; conditions: enzymatic; read-out: InsR IC50 values
# Protocol: as §1, §2, §3, §4
# IGF1R [1] = molecular target: T2, IGF1R (Homo sapiens, UniProt P08069); assay: Enzymatic kinase assay (filter-binding/flashplate); type: biochemical
# Protocol: as §1, §2, §3, §4
# IGF1R [2] = molecular target: T2, IGF1R; assay: Cellular IGF-1R assay: inhibition of IGF1R phosphorylation in Hek293 cells, capture ELISA (MSD); type: cell-based; design: expressed in transfected cells; host or cells: Hek293 (Hek293-IGF1R); conditions: IGF-triggered receptor phosphorylation
# Protocol: IVa. Cellular IGF-1R and InsR Assays
# Compound-mediated inhibition of IGF1R and INSR phosphorylation in Hek293 cells transduced with the corresponding receptors is assessed in a capture ELISA format using the MSD (Meso Scale Discovery) platform. Briefly, 30′000 cells washed and diluted in starvation medium (DMEM high glucose supplemented with 0.1% BSA) are seeded in 90 μL per well into 96-well plates pre-coated with poly-D-lysine (0.1 mg/mL in PBS/O). After 24 h incubation at 37° C. and 5% CO2, dose-response effects are determined with 3-fold serial compound dilutions, starting at 10 μM. The final vehicle concentration is 0.1% DMSO in all wells. Following pre-incubation with compounds for 1 h, receptor phosphorylation is triggered by a 10 min exposure to 1.0 ng/μL IGF for Hek293-IGF1R cells, and 5.0 ng/μL insulin for Hek293-InsR cells. Cell lysis is achieved by addition of 80 μL MSD lysis buffer per aspirated well, incubation on ice for 20 min, and a freeze-thaw cycle. Target phosphorylation is then assessed by transferring volumes corresponding to approx. 6 μg Hek293-IGF1R or 0.6 μg Hek293-InsR lysates to MSD assay plates pre-coated with total-IGF1R or total-InsR Abs, respectively. […] Immune complexes are detected by a SULFO-Tag™-coupled anti-rabbit IgG antibody in the presence of 150 μL MSD read-buffer. Light emission at 620 nm triggered by application of electric current is recorded on a MSD Sectorlmager 6000. Acquired raw data (mean Ru-ECL units) are processed in an Excel analysis template. The plate blank (MSD lysis buffer) is subtracted from all data points. The effect of a particular test compound concentration on receptor phosphorylation is expressed relative to the window defined by ligand-stimulated vs unstimulated control cells (set as 100%). IC50 values [nM] are determined using 4-parametric curve-fitting (XLfit software, V4.3.2).
# hERG channels = hERG channels (Homo sapiens, UniProt Q12809); assay: biochemical
# Sequence of hERG channels (Q12809 whole entry): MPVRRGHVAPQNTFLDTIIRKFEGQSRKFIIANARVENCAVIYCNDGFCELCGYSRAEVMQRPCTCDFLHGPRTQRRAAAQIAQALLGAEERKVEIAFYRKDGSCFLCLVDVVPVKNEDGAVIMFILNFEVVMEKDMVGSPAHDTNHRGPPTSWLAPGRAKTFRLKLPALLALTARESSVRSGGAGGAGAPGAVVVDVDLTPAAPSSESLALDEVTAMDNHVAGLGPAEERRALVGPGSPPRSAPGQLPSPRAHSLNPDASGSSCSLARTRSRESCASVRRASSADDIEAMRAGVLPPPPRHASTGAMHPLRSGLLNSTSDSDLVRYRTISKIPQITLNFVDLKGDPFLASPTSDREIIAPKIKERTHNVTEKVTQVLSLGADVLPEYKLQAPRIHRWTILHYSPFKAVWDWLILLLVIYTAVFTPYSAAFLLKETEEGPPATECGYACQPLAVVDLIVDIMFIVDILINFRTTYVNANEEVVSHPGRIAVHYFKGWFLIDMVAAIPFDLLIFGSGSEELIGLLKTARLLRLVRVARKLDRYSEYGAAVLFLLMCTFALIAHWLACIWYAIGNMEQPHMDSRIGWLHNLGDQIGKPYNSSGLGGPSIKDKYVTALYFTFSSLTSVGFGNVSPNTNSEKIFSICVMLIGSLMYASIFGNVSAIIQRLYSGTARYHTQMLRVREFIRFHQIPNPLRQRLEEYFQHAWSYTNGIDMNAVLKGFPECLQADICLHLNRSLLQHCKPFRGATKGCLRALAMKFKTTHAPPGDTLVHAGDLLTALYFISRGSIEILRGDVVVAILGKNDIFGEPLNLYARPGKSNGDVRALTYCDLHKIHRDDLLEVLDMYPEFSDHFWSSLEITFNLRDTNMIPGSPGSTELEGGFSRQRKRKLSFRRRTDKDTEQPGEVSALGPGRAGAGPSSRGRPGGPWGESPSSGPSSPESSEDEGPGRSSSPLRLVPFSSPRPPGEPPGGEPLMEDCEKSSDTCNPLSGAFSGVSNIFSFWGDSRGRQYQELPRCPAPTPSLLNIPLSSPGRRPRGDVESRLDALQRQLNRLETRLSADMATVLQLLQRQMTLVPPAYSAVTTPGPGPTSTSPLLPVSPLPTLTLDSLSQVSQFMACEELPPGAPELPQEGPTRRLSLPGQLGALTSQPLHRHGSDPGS
# Sequence of cMET (P08581 25-1390): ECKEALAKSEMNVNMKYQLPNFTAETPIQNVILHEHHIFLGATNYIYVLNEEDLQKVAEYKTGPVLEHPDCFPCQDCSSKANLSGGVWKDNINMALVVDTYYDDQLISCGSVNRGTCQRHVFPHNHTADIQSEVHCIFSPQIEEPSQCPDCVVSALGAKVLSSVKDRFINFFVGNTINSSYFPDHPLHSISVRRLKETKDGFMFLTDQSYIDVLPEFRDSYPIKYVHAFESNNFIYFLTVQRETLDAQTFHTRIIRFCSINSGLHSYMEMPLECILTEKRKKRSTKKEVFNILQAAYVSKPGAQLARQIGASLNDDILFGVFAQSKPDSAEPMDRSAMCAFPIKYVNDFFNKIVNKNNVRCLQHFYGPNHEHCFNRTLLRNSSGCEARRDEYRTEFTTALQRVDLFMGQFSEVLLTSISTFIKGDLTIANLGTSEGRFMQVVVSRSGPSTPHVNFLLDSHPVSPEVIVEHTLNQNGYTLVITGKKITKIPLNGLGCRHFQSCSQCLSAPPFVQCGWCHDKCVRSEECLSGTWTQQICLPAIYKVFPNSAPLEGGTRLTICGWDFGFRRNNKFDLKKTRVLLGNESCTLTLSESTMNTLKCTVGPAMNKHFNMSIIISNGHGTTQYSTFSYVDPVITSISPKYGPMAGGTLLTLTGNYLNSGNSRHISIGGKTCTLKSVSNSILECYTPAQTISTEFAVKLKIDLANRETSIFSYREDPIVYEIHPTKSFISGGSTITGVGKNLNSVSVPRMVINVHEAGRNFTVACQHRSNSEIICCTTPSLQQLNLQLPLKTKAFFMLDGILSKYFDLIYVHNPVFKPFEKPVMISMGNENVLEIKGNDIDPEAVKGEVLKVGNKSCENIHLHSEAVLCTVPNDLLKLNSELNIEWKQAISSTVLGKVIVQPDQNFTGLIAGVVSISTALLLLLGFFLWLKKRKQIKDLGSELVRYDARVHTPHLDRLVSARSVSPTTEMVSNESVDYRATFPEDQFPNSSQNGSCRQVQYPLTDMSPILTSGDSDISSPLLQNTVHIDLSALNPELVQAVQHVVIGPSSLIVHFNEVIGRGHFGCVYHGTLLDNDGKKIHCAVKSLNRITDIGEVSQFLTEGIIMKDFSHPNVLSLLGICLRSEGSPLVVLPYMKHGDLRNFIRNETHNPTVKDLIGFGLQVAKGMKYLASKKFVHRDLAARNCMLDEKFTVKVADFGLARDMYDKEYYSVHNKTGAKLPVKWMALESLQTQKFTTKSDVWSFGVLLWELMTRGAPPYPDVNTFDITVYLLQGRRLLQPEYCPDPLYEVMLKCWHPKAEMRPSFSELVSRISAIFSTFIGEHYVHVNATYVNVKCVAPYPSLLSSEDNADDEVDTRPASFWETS
# Sequence of ERK2 (P28482 whole entry, species assumed): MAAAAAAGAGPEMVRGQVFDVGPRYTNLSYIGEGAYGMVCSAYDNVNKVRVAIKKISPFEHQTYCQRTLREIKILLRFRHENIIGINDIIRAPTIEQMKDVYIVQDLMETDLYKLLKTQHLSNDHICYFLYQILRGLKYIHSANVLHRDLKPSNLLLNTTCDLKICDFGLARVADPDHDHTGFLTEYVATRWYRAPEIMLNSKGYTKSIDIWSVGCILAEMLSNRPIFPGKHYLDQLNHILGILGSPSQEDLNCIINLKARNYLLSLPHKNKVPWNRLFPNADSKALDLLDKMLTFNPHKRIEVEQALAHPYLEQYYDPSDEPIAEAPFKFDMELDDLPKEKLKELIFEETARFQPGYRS
# T2 sequence (P08069 31-1367): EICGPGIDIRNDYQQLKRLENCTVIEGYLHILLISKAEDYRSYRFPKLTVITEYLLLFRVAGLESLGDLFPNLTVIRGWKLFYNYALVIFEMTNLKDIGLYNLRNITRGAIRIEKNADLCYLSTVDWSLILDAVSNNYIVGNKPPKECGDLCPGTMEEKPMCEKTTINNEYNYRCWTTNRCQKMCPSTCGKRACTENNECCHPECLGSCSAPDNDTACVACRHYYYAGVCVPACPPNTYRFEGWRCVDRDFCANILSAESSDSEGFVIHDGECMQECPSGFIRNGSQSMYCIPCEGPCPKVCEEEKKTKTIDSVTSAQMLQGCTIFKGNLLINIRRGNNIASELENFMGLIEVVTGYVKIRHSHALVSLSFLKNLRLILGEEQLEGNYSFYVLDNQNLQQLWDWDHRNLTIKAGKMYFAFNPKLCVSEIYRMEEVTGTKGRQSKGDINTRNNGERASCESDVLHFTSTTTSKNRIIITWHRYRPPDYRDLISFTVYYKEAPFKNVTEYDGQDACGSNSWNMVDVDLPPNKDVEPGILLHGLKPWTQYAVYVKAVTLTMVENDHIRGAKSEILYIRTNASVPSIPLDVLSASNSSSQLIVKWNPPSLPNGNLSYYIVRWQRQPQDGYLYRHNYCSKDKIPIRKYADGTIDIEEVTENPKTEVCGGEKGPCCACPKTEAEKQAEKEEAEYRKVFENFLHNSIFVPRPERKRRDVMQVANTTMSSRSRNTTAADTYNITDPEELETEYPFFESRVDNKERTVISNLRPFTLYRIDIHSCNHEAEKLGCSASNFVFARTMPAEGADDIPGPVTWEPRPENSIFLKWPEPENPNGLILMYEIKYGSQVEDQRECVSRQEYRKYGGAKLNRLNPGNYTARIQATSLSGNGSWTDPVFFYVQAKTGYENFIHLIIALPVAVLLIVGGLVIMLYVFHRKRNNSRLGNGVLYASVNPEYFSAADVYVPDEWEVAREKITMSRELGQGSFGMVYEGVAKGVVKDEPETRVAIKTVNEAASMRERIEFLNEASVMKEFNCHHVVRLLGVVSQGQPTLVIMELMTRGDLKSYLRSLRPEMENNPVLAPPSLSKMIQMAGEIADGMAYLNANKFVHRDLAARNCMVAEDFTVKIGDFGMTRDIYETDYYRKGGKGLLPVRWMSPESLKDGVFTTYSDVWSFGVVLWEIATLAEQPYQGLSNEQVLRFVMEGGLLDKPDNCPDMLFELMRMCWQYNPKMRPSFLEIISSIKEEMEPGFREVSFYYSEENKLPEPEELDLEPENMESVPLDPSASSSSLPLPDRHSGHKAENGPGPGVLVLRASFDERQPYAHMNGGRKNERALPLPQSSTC
# Sequence of FGFR-4 (P22455 22-802, species assumed): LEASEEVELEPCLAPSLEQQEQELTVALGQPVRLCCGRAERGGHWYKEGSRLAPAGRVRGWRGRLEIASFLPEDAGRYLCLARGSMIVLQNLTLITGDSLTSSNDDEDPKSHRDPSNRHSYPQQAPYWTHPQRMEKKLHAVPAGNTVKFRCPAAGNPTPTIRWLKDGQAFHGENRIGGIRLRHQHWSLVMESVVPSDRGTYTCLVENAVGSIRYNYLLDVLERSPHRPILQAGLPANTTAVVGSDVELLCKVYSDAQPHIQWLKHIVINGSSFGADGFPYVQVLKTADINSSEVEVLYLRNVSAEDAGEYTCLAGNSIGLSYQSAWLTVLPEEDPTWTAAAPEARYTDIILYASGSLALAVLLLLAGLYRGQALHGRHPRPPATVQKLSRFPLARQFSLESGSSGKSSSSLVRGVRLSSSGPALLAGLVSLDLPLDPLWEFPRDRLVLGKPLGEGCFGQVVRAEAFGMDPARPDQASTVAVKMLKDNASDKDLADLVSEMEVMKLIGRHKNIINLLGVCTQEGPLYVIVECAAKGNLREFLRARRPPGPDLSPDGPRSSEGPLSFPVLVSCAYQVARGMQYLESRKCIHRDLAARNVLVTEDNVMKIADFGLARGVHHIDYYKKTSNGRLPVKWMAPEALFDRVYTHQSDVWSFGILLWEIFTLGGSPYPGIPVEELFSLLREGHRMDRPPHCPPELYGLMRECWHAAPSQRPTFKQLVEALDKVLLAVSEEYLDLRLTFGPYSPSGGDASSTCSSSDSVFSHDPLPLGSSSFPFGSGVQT
structure (smiles),measurement,setting,value
"Nc1ncnc2c1c(-c1cccc(OCC3CCCO3)c1F)cn2[C@H]1C[C@@H](CN2CCS(=O)(=O)CC2)C1 (mixture of isomers) [Example 1, 7-[3-(1,1-Dioxo-1-thiomorpholin-4-ylmethyl)-cyclobutyl]-5-[2-fluoro-3-(tetrahydro-furan-2-ylmethoxy)-phenyl]-7H-pyrrolo[2,3-d]pyrimidin-4-ylamine]",IC50,cKIT,> 10 µM
same,IC50,PDGFRa,6.3 µM
same,IC50,FGFR-4,> 10 µM
same,IC50,LCK,> 10 µM
same,IC50,TYK2,> 10 µM
same,IC50,cMET,> 10 µM
same,IC50,GSK3beta,> 10 µM
same,IC50,COT1,> 10 µM
same,IC50,KDR,2.4 µM
same,IC50,CDK2A,> 10 µM
same,IC50,cABLT315,> 10 µM
same,IC50,P38a,> 10 µM
same,IC50,ERK2,> 10 µM
same,IC50,Aurora A,7 µM
same,IC50,JAK2,> 10 µM
same,IC50,RET,2 µM
same,IC50,EphA4,> 10 µM
same,IC50,MK2,> 10 µM
same,IC50,HER2,> 10 µM
same,IC50,InsR,0.038 µM
same,IC50,IGF1R [1],0.0042 µM
same,IC50,IGF1R [2],0.005 µM
"Nc1ncnc2c1c(-c1cccc(OC[C@@H]3CCCO3)c1F)cn2C1CC2(CNC(=O)O2)C1 (stereo partly drawn) [Example 4, 2-(4-Amino-5-{2-fluoro-3-[(S)-1-(tetrahydro-furan-2-yl)methoxy]-phenyl}-pyrrolo[2,3-d]pyrimidin-7-yl)-5-oxa-7-aza-spiro[3.4]octan-6-one]",IC50,cKIT,> 10 µM
same,IC50,PDGFRa,> 10 µM
same,IC50,FGFR-4,> 10 µM
same,IC50,LCK,> 10 µM
same,IC50,TYK2,> 10 µM
same,IC50,cMET,> 10 µM
same,IC50,GSK3beta,> 10 µM
same,IC50,COT1,> 10 µM
same,IC50,KDR,4.5 µM
same,IC50,CDK2A,> 10 µM
same,IC50,cABLT315,> 10 µM
same,IC50,P38a,> 10 µM
same,IC50,ERK2,> 10 µM
same,IC50,Aurora A,> 10 µM
same,IC50,JAK2,> 10 µM
same,IC50,RET,> 10 µM
same,IC50,EphA4,> 10 µM
same,IC50,MK2,> 10 µM
same,IC50,HER2,> 10 µM
same,IC50,hERG channels,8.7 µM
same,IC50,InsR,0.25 µM
same,IC50,IGF1R [1],0.013 µM
same,IC50,IGF1R [2],0.017 µM
"[2H]C1([2H])C([2H])([2H])C2(COc3cccc(-c4cn([C@H]5C[C@](O)(CO)C5)c5ncnc(N)c45)c3F)OC1([2H])C([2H])([2H])C2([2H])[2H] [Example 27, d9-(Z)-3-{4-Amino-5-[2-fluoro-3-(7-oxa-bicyclo[2.2.1]hept-1-ylmethoxy)-phenyl]-pyrrolo[2,3-d]pyrimidin-7-yl}-1-hydroxymethyl-cyclobutanol]",IC50,cKIT,> 10 µM
same,IC50,PDGFRa,> 10 µM
same,IC50,FGFR-4,> 10 µM
same,IC50,LCK,6.6 µM
same,IC50,TYK2,> 10 µM
same,IC50,cMET,> 10 µM
same,IC50,GSK3beta,> 10 µM
same,IC50,COT1,> 10 µM
same,IC50,KDR,> 10 µM
same,IC50,CDK2A,> 10 µM
same,IC50,cABLT315,> 10 µM
same,IC50,P38a,> 10 µM
same,IC50,ERK2,> 10 µM
same,IC50,Aurora A,> 10 µM
same,IC50,JAK2,> 10 µM
same,IC50,RET,> 10 µM
same,IC50,EphA4,> 10 µM
same,IC50,MK2,> 10 µM
same,IC50,HER2,> 10 µM
same,IC50,hERG channels,> 30 µM
same,IC50,InsR,0.13 µM
same,IC50,IGF1R [1],0.022 µM
"CC(=O)N1CCN([C@H]2C[C@H](n3cc(-c4cc(OC[C@@H]5CCCO5)ccc4F)c4c(N)ncnc43)C2)CC1 [Example 36, 1-{4-[trans-3-(4-Amino-5-{2-fluoro-5-[(S)-1-(tetrahydro-furan-2-yl)methoxy]-phenyl}-pyrrolo[2,3-d]pyrimidin-7-yl)-cyclobutyl]-piperazin-1-yl}-ethanone]",IC50,cKIT,> 10 µM
same,IC50,PDGFRa,> 10 µM
same,IC50,FGFR-4,> 10 µM
same,IC50,LCK,9.7 µM
same,IC50,TYK2,> 10 µM
same,IC50,cMET,> 10 µM
same,IC50,GSK3beta,> 10 µM
same,IC50,COT1,> 10 µM
same,IC50,KDR,> 10 µM
same,IC50,CDK2A,> 10 µM
same,IC50,cABLT315,> 10 µM
same,IC50,P38a,> 10 µM
same,IC50,ERK2,> 10 µM
same,IC50,Aurora A,> 10 µM
same,IC50,JAK2,> 10 µM
same,IC50,RET,3.1 µM
same,IC50,EphA4,> 10 µM
same,IC50,MK2,> 10 µM
same,IC50,HER2,> 10 µM
same,IC50,hERG channels,> 30 µM
same,IC50,InsR,1.3 µM
same,IC50,IGF1R [1],0.03 µM
"Nc1ncnc2c1c(-c1cc(OC[C@@H]3CCCO3)ccc1F)cn2[C@H]1C[C@@H](N2CCN(C(=O)CO)CC2)C1 [Example 40, 1-{4-[cis-3-(4-Amino-5-{2-fluoro-5-[(S)-1-(tetrahydro-furan-2-yl)methoxy]-phenyl}-pyrrolo[2,3-d]pyrimidin-7-yl)-cyclobutyl]-piperazin-1-yl}-2-hydroxy-ethanone]",IC50,cKIT,> 10 µM
same,IC50,PDGFRa,> 10 µM
same,IC50,FGFR-4,> 10 µM
same,IC50,LCK,> 10 µM
same,IC50,TYK2,> 10 µM
same,IC50,cMET,> 10 µM
same,IC50,GSK3beta,> 10 µM
same,IC50,COT1,> 10 µM
same,IC50,KDR,9.2 µM
same,IC50,CDK2A,> 10 µM
same,IC50,cABLT315,> 10 µM
same,IC50,P38a,> 10 µM
same,IC50,ERK2,> 10 µM
same,IC50,Aurora A,> 10 µM
same,IC50,JAK2,> 10 µM
same,IC50,RET,> 10 µM
same,IC50,EphA4,> 10 µM
same,IC50,MK2,> 10 µM
same,IC50,HER2,> 10 µM
same,IC50,hERG channels,> 30 µM
same,IC50,InsR,0.27 µM
same,IC50,IGF1R [1],0.0087 µM
